15 molecules from PubChem BioAssay (NCI) can be followed below.

Holding throughout (test): inhibition of tumour cell growth, NCI panel, 48 h
For experiment [1], the system named is NCI/ADR-RES ovarian.
For experiment [2], the system named is SK-OV-3 ovarian.
The test system of experiment [3] is SF-295 CNS.
The test system of experiment [4] is COLO 205 colon.
Experiment [5] deals with ACHN renal.
Experiment [6] deals with OVCAR-4 ovarian.
In experiment [7] the test system is SF-268 CNS.
Experiment [8] concerns SF-539 CNS.
Experiment [9] concerns 786-0 renal.
Experiment [10] concerns HT29 colon.
Experiment [11] deals with SNB-19 CNS.
In experiment [12] the test system is OVCAR-8 ovarian.
Experiment [13] deals with A549 NSCLC.
Experiment [14] relates to SK-MEL-2 melanoma.
In experiment [15] the test system is NCI-H23 lung.
In experiment [16] the test system is SNB-75 CNS.
In experiment [17] the test system is NCI-H226 lung.
Experiment [18] has as its system OVCAR-3 ovarian.
Experiment [19] has as its system MDA-MB-435.
The test system of experiment [20] is T-47D breast.

Structures are written as SMILES.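 Assay format: 96-well plates, 48-hour exposure. TGI: concentration producing complete growth inhibition.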

For the molecule `C/C(=N\N)C(CN(C)C)C(c1ccccc1)c1c(O)c2ccccc2oc1=O` (stereo unspecified), the TGI in experiment [1], in experiment [2], in experiment [3], in experiment [4], in experiment [5] and in experiment [6] was over 100 µM throughout. Besides, the TGI in experiment [7], in experiment [8], in experiment [9], in experiment [10], in [11] and in [12] was over 100 µM each time. In addition, the TGI in experiment [13], in [14], in [15], in experiment [16], in experiment [17] and in [18] was over 100 µM each time. In experiment [19], this molecule had a TGI of over 100 µM.
With `CC(C)OP(=O)(OC(C)C)C(C(C)C)N(C)/C(N)=N\C1=NC(C(F)(F)F)(C(F)(F)F)N=C(C(C(F)(F)F)C(F)(F)F)O1` (stereo unspecified), the TGI amounted to 19.8 µM in [2]; 18 µM in experiment [3]; 3.64 µM in experiment [4]; 8.67 µM in [5]; 12 µM in experiment [7]; 31.3 µM in experiment [20]. In addition, the TGI in [8] turned out to be 11.8 µM; in [9] it was 12.4 µM; in [10] it was 6.98 µM; in experiment [11], 44.9 µM; in [12] it was 5.28 µM; in experiment [13], 14.6 µM. For the same molecule, the TGI was over 100 µM in experiment [14]; 14.6 µM in [15]; 11.9 µM in experiment [16]; 5.05 µM in experiment [17]; 31.6 µM in [18]; 3.78 µM in [19].
With `CC1=C(C(=O)Nc2cccc3c2C(=O)NC3=O)CC(C(=O)Nc2cccc3c2C(=O)NC3=O)=C(C)N1`, the TGI in [2], in experiment [3], in [4], in [5], in experiment [6] and in [7] was over 100 µM in each case. Also, the TGI in [20], in [8], in experiment [9], in experiment [11], in experiment [13] and in experiment [14] was over 100 µM in each case. Further, the TGI in experiment [15], in experiment [16], in experiment [18] and in experiment [19] was over 100 µM in each case.
For the molecule `CCOC(=O)NC(C(F)(F)F)(C(F)(F)F)P(=O)(OC(C)C)OC(C)C`, the TGI in experiment [1], in [2], in experiment [3], in [4], in experiment [5] and in experiment [6] was over 100 µM throughout. The TGI in [7], in [8], in [9], in experiment [10], in experiment [11] and in [12] was over 100 µM each time. The TGI in [13], in experiment [14], in experiment [15], in [16], in experiment [17] and in experiment [18] was over 100 µM throughout. The TGI in [19] is over 100 µM.
`CCOC(=O)c1cc(Sc2ccc(N)c(C(=O)OCC)c2)ccc1N`: the TGI in experiment [1], in experiment [2], in experiment [3], in experiment [4], in [5] and in [6] was over 100 µM throughout. Further, the TGI in [7], in experiment [20], in experiment [8], in [9], in experiment [10] and in experiment [11] was over 100 µM in each case. Further, the TGI in [12] is over 100 µM; in experiment [13], over 100 µM; in experiment [14] it was over 100 µM; in experiment [15], over 100 µM; in experiment [16], over 100 µM; in [17], 44.7 µM. This molecule also came in with a TGI in experiment [18] of over 100 µM.
Consider `CN(C)c1ccc(-c2c(C#N)c(N)[nH]c(=S)c2C#N)cc1`, for which the TGI in experiment [1], in experiment [2], in [3], in experiment [4], in experiment [5] and in experiment [6] was over 100 µM in each case. Moreover, the TGI in experiment [7], in [8], in experiment [9], in experiment [10], in [11] and in experiment [12] was over 100 µM in each case. The TGI is over 100 µM in experiment [13]; over 100 µM in experiment [14]; over 100 µM in [15]; over 100 µM in experiment [16]; 92.2 µM in experiment [17]; over 100 µM in experiment [18]. Besides, in experiment [19], the TGI is over 100 µM.
On to `Cc1c2ccncc2cc2c1sc1ccncc12`, for which the TGI in [2] was 29 µM; in experiment [3] it was 9.59 µM; in experiment [4], 12.1 µM; in experiment [5], 4.22 µM; in experiment [6] it was 25.2 µM; in experiment [7], 14.4 µM. Also, the TGI in experiment [20] turned out to be 7.44 µM; in experiment [8] it was 17.6 µM; in [9] it was 18 µM; in experiment [10], 14.5 µM; in [11], 30.3 µM; in experiment [12] it was 23.7 µM. Further, the TGI in experiment [13] was 5.3 µM; in experiment [14] it was 17.8 µM; in experiment [15], 10.7 µM; in experiment [16], 15.4 µM; in [17] it was 5.18 µM; in experiment [18] it was 27.7 µM.
`CCOC(=O)C(c1c[nH]c2ccccc12)(c1c[nH]c2ccccc12)c1c[nH]c2ccccc12`: the TGI in experiment [1] is over 100 µM; in experiment [2], over 100 µM; in experiment [3], over 100 µM; in [4] it was 39.2 µM; in experiment [5] it was over 100 µM; in [7], over 100 µM. In addition, the TGI was 54.2 µM in experiment [20]; over 100 µM in experiment [8]; over 100 µM in experiment [9]; over 100 µM in experiment [10]; over 100 µM in experiment [11]; over 100 µM in [12]. The TGI is over 100 µM in experiment [13]; 59.7 µM in experiment [14]; over 100 µM in experiment [15]; 88.5 µM in [16]; over 100 µM in [18]; 76.7 µM in experiment [19].
On to `NCCCCNCCCN1CC1`, for which the TGI in experiment [3] is over 100 µM; in [4], 3.71 µM; in experiment [6] it was 0.733 µM; in experiment [7], over 100 µM; in experiment [20], 3.46 µM; in experiment [8], 2.59 µM. For the same molecule, the TGI in [9] is 5.75 µM; in [10] it was over 42 µM; in experiment [11], 22.5 µM; in experiment [13], over 100 µM; in experiment [15], 16.2 µM; in experiment [16] it was 1.92 µM. Besides, the TGI was over 31.4 µM in [17], 8.98 µM in experiment [18] and over 94.6 µM in experiment [19].
Turning to `COc1cc(NC(C)=O)c2[nH]c3c(C)cc(NC(C)=O)c(C)c3c2c1`, the TGI in [2], in [3], in experiment [4], in experiment [5], in experiment [6] and in [7] was over 100 µM throughout. The TGI in experiment [8], in experiment [9], in [10], in experiment [11], in experiment [12] and in experiment [13] was over 100 µM each time. The TGI in experiment [14], in experiment [15], in experiment [16], in experiment [17] and in experiment [18] was over 100 µM in each case.
As to `COc1ccc(/C=C2\OC(=O)C(Cl)=C2c2ccc(OC)cc2)cc1`, the TGI in experiment [2], in experiment [3], in [4], in [5], in experiment [6] and in experiment [7] was over 100 µM throughout. Further, the TGI in experiment [20], in [8], in experiment [9], in experiment [10], in [11] and in [12] was over 100 µM each time. Moreover, the TGI in experiment [13], in experiment [14], in [16], in experiment [18] and in experiment [19] was over 100 µM each time.
For the molecule `CCc1nnc(CC)n1NCCCC(=O)O`, the TGI in [1], in [2], in experiment [3], in experiment [4], in [5] and in [6] was over 100 µM in each case. Also, the TGI in experiment [7], in experiment [8], in experiment [9], in [10], in [11] and in experiment [12] was over 100 µM each time. For the same molecule, the TGI in experiment [13], in experiment [14], in experiment [15], in experiment [16], in experiment [18] and in experiment [19] was over 100 µM throughout.
Take `CC(C)c1ccccc1SC1CC(=O)CC(Sc2ccccc2C(C)C)C12O[C@H](c1ccccc1)[C@@H](c1ccccc1)O2` (stereo partly specified): the TGI in experiment [1], in [2], in [3], in experiment [4], in experiment [5] and in experiment [6] was over 100 µM throughout. The TGI in [20] was 82.9 µM; in experiment [8] it was over 100 µM; in [9], 33.3 µM; in experiment [10] it was over 100 µM; in experiment [11], over 100 µM; in [12], over 100 µM. Also, the TGI in experiment [13] was over 100 µM; in experiment [14] it was over 100 µM; in experiment [15], over 100 µM; in experiment [18], over 100 µM; in [19], 55.2 µM.
As for `CCCCCCn1c(SCC)c2ccccc2c1-c1nc(F)nc(F)n1`, the TGI in experiment [2], in experiment [3], in [4], in experiment [5], in experiment [6] and in experiment [7] was over 100 µM each time. For the same molecule, the TGI in experiment [8], in [9], in [10], in [11], in experiment [12] and in experiment [13] was over 100 µM each time. The TGI in experiment [14], in experiment [15], in experiment [16], in experiment [17] and in [18] was over 100 µM throughout.
Consider `O=c1c2cc(S(=O)(=O)Nc3ccccc3Cl)ccc2ncn1NS(=O)(=O)c1ccc(Br)cc1`, for which the TGI in experiment [1], in experiment [2], in experiment [3], in experiment [4], in experiment [5] and in [6] was over 37.5 µM each time. The TGI in experiment [7], in experiment [8], in [9], in experiment [10], in experiment [11] and in experiment [12] was over 37.5 µM each time. Further, the TGI in experiment [13], in experiment [14], in experiment [15], in [16], in [17] and in experiment [18] was over 37.5 µM in each case. In experiment [19], this molecule returned a TGI of over 37.5 µM.
